Species on record: Rattus norvegicus
Test: DrugMatrix - Regimen: Daily Repeat
Format: toxicity, organism-based, Sprague-Dawley
Design: regimen Daily Repeat, gender Male, age 6-8 weeks
Details: in vivo, po, route oral GAVAGE, […]; for HEMOGLOBIN / LYMPHOCYTE / MEAN CORPUSCULAR HEMOGLOBIN CONCENTRATION / MEAN CORPUSCULAR VOLUME / NUCLEATED RED BLOOD CELLS / PLATELET COUNT / ABSOLUTE BASOPHIL / ABSOLUTE EOSINOPHIL / ABSOLUTE LYMPHOCYTE / ABSOLUTE MONOCYTE / ABSOLUTE SEGMENTED NEUTROPHIL / BASOPHIL / EOSINOPHIL / ERYTHROCYTE COUNT / HEMATOCRIT: tissue Blood; for ALANINE AMINOTRANSFERASE / ALBUMIN / ALKALINE PHOSPHATASE / ASPARTATE AMINOTRANSFERASE / BLOOD UREA NITROGEN / CARBON DIOXIDE / CREATINE PHOSPHOKINASE / CREATININE / LACTATE DEHYDROGENASE / TOTAL BILIRUBIN / TOTAL PROTEIN / URIC ACID: tissue Plasma
[1] = 215 mg/kg, 72 h, dose level M2, time 3 day
[2] = 215 mg/kg, 120 h, dose level M2, time 5 day
[3] = 430 mg/kg, 72 h, dose level M3, time 3 day
[4] = 430 mg/kg, 120 h, dose level M3, time 5 day

**Q.** Which results are given for `CC(C)OC(=O)C(C)(C)Oc1ccc(C(=O)c2ccc(Cl)cc2)cc1` [FENOFIBRATE]?
**A.** HEMOGLOBIN [1]: 13.3 G/DL; LYMPHOCYTE [1]: 89.67%; MEAN CORPUSCULAR HEMOGLOBIN CONCENTRATION [1]: 39.2 G/DL; MEAN CORPUSCULAR VOLUME [1]: 61.5 fL; NUCLEATED RED BLOOD CELLS [1]: 0 /100WBC; PLATELET COUNT [1]: 1279.67 x10E3/uL; ALANINE AMINOTRANSFERASE [1]: 84.33 u/L; ALBUMIN [1]: 4.4 G/DL; ALKALINE PHOSPHATASE [1]: 436.33 u/L; ASPARTATE AMINOTRANSFERASE [1]: 108 u/L; BLOOD UREA NITROGEN [1]: 11.33 mg/dL; CARBON DIOXIDE [1]: 28.33 mmol/L; CREATINE PHOSPHOKINASE [1]: 307 u/L; CREATININE [1]: 0.23 mg/dL; LACTATE DEHYDROGENASE [1]: 227 u/L; TOTAL BILIRUBIN [1]: 0.1 mg/dL; TOTAL PROTEIN [1]: 5.3 G/DL; URIC ACID [1]: 1.47 mg/dL; ABSOLUTE BASOPHIL [2]: 0 CELLS/uL; ABSOLUTE EOSINOPHIL [2]: 0 CELLS/uL; ABSOLUTE LYMPHOCYTE [2]: 6815.67 CELLS/uL; ABSOLUTE MONOCYTE [2]: 96.33 CELLS/uL; ABSOLUTE SEGMENTED NEUTROPHIL [2]: 721.33 CELLS/uL; BASOPHIL [2]: 0%; EOSINOPHIL [2]: 0%; ERYTHROCYTE COUNT [2]: 5.68 x10E6/uL; HEMATOCRIT [2]: 34.5%; HEMOGLOBIN [2]: 13.47 G/DL; LYMPHOCYTE [2]: 90%; MEAN CORPUSCULAR HEMOGLOBIN CONCENTRATION [2]: 39.07 G/DL; MEAN CORPUSCULAR VOLUME [2]: 60.77 fL; NUCLEATED RED BLOOD CELLS [2]: 0 /100WBC; PLATELET COUNT [2]: 1144.67 x10E3/uL; ALANINE AMINOTRANSFERASE [2]: 92.67 u/L; ALBUMIN [2]: 4.8 G/DL; ALKALINE PHOSPHATASE [2]: 542 u/L; ASPARTATE AMINOTRANSFERASE [2]: 108.67 u/L; BLOOD UREA NITROGEN [2]: 9 mg/dL; CARBON DIOXIDE [2]: 35.67 mmol/L; CREATINE PHOSPHOKINASE [2]: 436 u/L; CREATININE [2]: 0.23 mg/dL; LACTATE DEHYDROGENASE [2]: 185.67 u/L; TOTAL BILIRUBIN [2]: 0.1 mg/dL; TOTAL PROTEIN [2]: 5.87 G/DL; URIC ACID [2]: 0.93 mg/dL; ABSOLUTE BASOPHIL [3]: 0 CELLS/uL; ABSOLUTE EOSINOPHIL [3]: 35 CELLS/uL; ABSOLUTE LYMPHOCYTE [3]: 8585.33 CELLS/uL; ABSOLUTE MONOCYTE [3]: 165.67 CELLS/uL; ABSOLUTE SEGMENTED NEUTROPHIL [3]: 847.33 CELLS/uL; BASOPHIL [3]: 0%; EOSINOPHIL [3]: 0.33%; ERYTHROCYTE COUNT [3]: 5.9 x10E6/uL; HEMATOCRIT [3]: 37.27%; LYMPHOCYTE [3]: 89.33%; MEAN CORPUSCULAR HEMOGLOBIN CONCENTRATION [3]: 38.8 G/DL; MEAN CORPUSCULAR VOLUME [3]: 63.17 fL; NUCLEATED RED BLOOD CELLS [3]: 0 /100WBC; PLATELET COUNT [3]: 1091.33 x10E3/uL; ALANINE AMINOTRANSFERASE [3]: 125.33 u/L; ALBUMIN [3]: 3.57 G/DL; ALKALINE PHOSPHATASE [3]: 509.67 u/L; ASPARTATE AMINOTRANSFERASE [3]: 123.67 u/L; BLOOD UREA NITROGEN [3]: 12 mg/dL; CARBON DIOXIDE [3]: 25.67 mmol/L; CREATINE PHOSPHOKINASE [3]: 211 u/L; CREATININE [3]: 0.21 mg/dL; LACTATE DEHYDROGENASE [3]: 138.33 u/L; TOTAL BILIRUBIN [3]: 0.23 mg/dL; TOTAL PROTEIN [3]: 4.8 G/DL; URIC ACID [3]: 0.57 mg/dL; ABSOLUTE BASOPHIL [4]: 0 CELLS/uL; ABSOLUTE EOSINOPHIL [4]: 84 CELLS/uL; ABSOLUTE LYMPHOCYTE [4]: 7042 CELLS/uL; ABSOLUTE MONOCYTE [4]: 80.5 CELLS/uL
